# Results: patent US20100247517A1, “USE OF MNK INHIBITORS FOR THE TREATMENT OF ALZHEIMER'S DISEASE” (Boehringer Ingelheim Internationational GmbH, priority 2007, published 2010)
# What was measured:
# [1] = target: T1, Human Mnk1-GST (Homo sapiens, UniProt Q9BUB5); assay: In vitro phosphorylation of human Tau by Mnk1 (kinase reaction, immunoblotting); type: biochemical
# T1 construct: GST; made in house; host or cells: E. coli
# Procedure: (§1) Kinase reaction: The kinase reactions were carried out in a total volume of 30 μl in reaction buffer (20 mM HEPES/KOH pH 7.4, 10 mM MgCl2, 2 mM DTT, 0.1% Pluronic F127, 0.01% BSA) containing 500 μM ATP, 0.5 μM human recombinant Tau (USBiological, T1040-10), inhibitors and kinases as indicated in figures. Human Mnk1-GST and Mnk2-GST was expressed in E. coli and purifies by Äkta Explorer 100 (Amersham) and pre-activated by human recombinant Erk2 (DeveloGen). Aliquots were stored at −80° C. up to use. Recombinant human PKA (Calbiochem, 539482) was used as positive control. All components of reactions were pre-diluted in reaction buffer. […] Samples were analysed by Immunoblotting.
# (§2) Immunoblotting: Laemmli sample buffer (Biorad) was added to the stopped kinase reactions, subjected to SDS-PAGE and electroblotted on a nitrocellulose membrane (Schleicher & Schüll). The transferred membrane was incubated with NET-G buffer (50 mM Tris/HCl pH 7.5, 5 mM EDTA, 150 mM NaCl, 0.05% Triton X-100, 0.25% (w/v) gelatine) containing 1/1000 (v/v) anti Tau (phospho S262) or anti Tau (phospho S356) antibodies (Abcam, ab4856 and ab4857) over night at 4° C. After washing with NET-G buffer the membrane was treated with NET-G buffer containing 1/5000 (v/v) HRP-conjugated anti rabbit IgG antibody (Pierce) for 2 hours at room temperature.
# (§3) For loading control membrane was stripped with stripping buffer (200 mM glycine/HCl pH 2.2, 0.1% SDS, 0.1% Tween 20) for 3 hours at room temperature. The membrane was then treated with NET-G buffer containing 1/4000 (v/v) anti Tau antibody (Abcam, ab19326). After washing with NET-G buffer the membrane was incubated with NET-G buffer containing 1/5000 (v/v) HRP-conjugated anti goat IgG antibody (DakoCytomation). Signals were detected with chemiluminescence using ECL Super Signal West Dura kit (Pierce).
# [2] = target: T2, Human Mnk2-GST (Homo sapiens, UniProt Q9HBH9); assay: In vitro phosphorylation of human Tau by Mnk2 (kinase reaction, immunoblotting); type: biochemical
# T2 construct: GST; made in house; host or cells: E. coli
# Procedure: as §1, §2, §3
# [3] = results summary of FIG. 2 / FIG. 3
# T2 sequence (Q9HBH9 whole entry): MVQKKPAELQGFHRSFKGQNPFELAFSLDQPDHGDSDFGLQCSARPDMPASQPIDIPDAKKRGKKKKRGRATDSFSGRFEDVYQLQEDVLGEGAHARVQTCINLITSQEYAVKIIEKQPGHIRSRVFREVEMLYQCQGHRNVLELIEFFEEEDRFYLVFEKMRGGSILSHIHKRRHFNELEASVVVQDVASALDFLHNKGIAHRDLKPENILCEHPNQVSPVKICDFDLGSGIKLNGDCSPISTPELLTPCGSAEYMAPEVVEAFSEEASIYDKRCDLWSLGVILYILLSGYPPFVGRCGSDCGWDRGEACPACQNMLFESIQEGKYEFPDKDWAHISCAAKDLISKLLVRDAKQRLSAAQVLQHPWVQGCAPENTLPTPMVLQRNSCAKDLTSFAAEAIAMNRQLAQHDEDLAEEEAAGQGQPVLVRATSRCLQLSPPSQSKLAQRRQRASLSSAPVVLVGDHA
# T1 sequence (Q9BUB5 whole entry): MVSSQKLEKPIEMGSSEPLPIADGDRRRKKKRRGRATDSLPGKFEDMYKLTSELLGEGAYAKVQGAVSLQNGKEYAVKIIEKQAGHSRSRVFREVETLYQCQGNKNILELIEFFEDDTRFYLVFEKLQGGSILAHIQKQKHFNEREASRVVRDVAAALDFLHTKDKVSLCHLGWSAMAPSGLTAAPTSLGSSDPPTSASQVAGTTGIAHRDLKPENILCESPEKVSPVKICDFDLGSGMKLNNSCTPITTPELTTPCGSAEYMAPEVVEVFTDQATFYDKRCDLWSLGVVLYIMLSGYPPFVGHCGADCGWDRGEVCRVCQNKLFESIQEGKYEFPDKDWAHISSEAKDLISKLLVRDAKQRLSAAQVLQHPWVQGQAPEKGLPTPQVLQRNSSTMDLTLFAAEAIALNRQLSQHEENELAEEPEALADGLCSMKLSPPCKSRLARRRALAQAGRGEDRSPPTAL
smiles,measurement,setting,value
"CCOc1cc(C(N)=O)ccc1Nc1ncnc2scc(C)c12 [EDJ101401, 3-ethoxy-4-(5-methyl-thieno[2,3-D]pyrimidine-4-ylamino)-benzamide]",inhibition of in vitro phosphorylation of Ser262 in human Tau by Mnk1,"[1]; 0.5 μM human Tau, 500 μM ATP, 120 min at 37° C., Erk2 (5 nM) used to activate Mnk, Western blot, FIG. 2A",in a dose dependent manner
same,inhibition of in vitro phosphorylation of Ser356 in human Tau by Mnk1,"[1]; 0.5 μM human Tau, 500 μM ATP, 120 min at 37° C., Erk2 (5 nM) used to activate Mnk, Western blot, FIG. 2B",in a dose dependent manner
same,inhibition of Mnk1-dependent tau phosphorylation,[1]; [3],dose-dependent inhibition
same,inhibition of in vitro phosphorylation of Ser262 in human Tau by Mnk2,"[2]; 0.5 μM human Tau, 500 μM ATP, 120 min at 37° C., Western blot, FIG. 2A / 3A",in a dose dependent manner
same,inhibition of in vitro phosphorylation of Ser356 in human Tau by Mnk2,"[2]; 0.5 μM human Tau, 500 μM ATP, 120 min at 37° C., Western blot, FIG. 2B / 3B",in a dose dependent manner
same,inhibition of Mnk2-dependent tau phosphorylation,[2]; [3],dose-dependent inhibition
